Test results: PubChem BioAssay (NCI)
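Test compounds were applied to cells in 96-well plates for 48 hours at 5 doses. GI50 marks 50% less growth. TGI is the concentration that stops growth completely.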

Key:
Test in all cases: DTP human tumour cell line panel, 48 h
[1] = tested on: NCI-H23 lung
[2] = tested on: NCI-H460 lung
[3] = tested on: NCI-H522 lung
[4] = tested on: NCI/ADR-RES ovarian
[5] = tested on: OVCAR-3 ovarian
[6] = tested on: OVCAR-4 ovarian
[7] = tested on: OVCAR-5 ovarian
[8] = tested on: OVCAR-8 ovarian
[9] = tested on: PC-3 prostate
[10] = tested on: RPMI-8226 leukemia
[11] = tested on: RXF 393 renal
[12] = tested on: SF-268 CNS
[13] = tested on: SF-295 CNS
[14] = tested on: SF-539 CNS
[15] = tested on: SK-MEL-2 melanoma
[16] = tested on: SK-MEL-28 melanoma
[17] = tested on: SK-MEL-5 melanoma
[18] = tested on: SK-OV-3 ovarian
[19] = tested on: SN12C renal
[20] = tested on: SNB-19 CNS
[21] = tested on: SNB-75 CNS
[22] = tested on: SR leukemia
[23] = tested on: SW-620 colon
[24] = tested on: T-47D breast
[25] = tested on: TK-10 renal
[26] = tested on: U251 CNS
[27] = tested on: UACC-257 melanoma
[28] = tested on: UACC-62 melanoma
[29] = tested on: UO-31 renal

SMILES: C=CCOC1=CC(=O)c2ccccc2C1=O
- GI50 [1]: 1.76 µM
- TGI [1]: 3.41 µM
- GI50 [2]: 11.6 µM
- TGI [2]: 31.1 µM
- GI50 [3]: 2.05 µM
- TGI [3]: 3.9 µM
- GI50 [4]: 2.68 µM
- TGI [4]: 7 µM
- GI50 [5]: 2.51 µM
- TGI [5]: 5.44 µM
- GI50 [6]: 1.57 µM
- TGI [6]: 2.95 µM
- GI50 [7]: 2.38 µM
- TGI [7]: 5.46 µM
- GI50 [8]: 3.37 µM
- TGI [8]: 12.9 µM
- GI50 [9]: 4.29 µM
- TGI [9]: 24.5 µM
- GI50 [10]: 3.2 µM
- GI50 [11]: 2.45 µM
- TGI [11]: 6.03 µM
- GI50 [12]: 4.21 µM
- TGI [12]: 14.5 µM
- GI50 [13]: 2.12 µM
- TGI [13]: 4.75 µM
- GI50 [14]: 2.37 µM
- TGI [14]: 6.01 µM
- GI50 [15]: 2.34 µM
- TGI [15]: 4.46 µM
- GI50 [16]: 2.38 µM
- TGI [16]: 4.44 µM
- GI50 [17]: 1.63 µM
- TGI [17]: 3.01 µM
- GI50 [18]: 3.59 µM
- TGI [18]: 12.3 µM
- GI50 [19]: 2.75 µM
- TGI [19]: 6.45 µM
- GI50 [20]: 12.9 µM
- TGI [20]: 29.2 µM
- GI50 [21]: 2.11 µM
- TGI [21]: 4.08 µM
- GI50 [22]: 2.24 µM
- TGI [22]: 7.61 µM
- GI50 [23]: 2.31 µM
- TGI [23]: 4.84 µM
- GI50 [24]: 2.52 µM
- TGI [24]: 7.85 µM
- GI50 [25]: 15.4 µM
- TGI [25]: 28.9 µM
- GI50 [26]: 2.71 µM
- TGI [26]: 6.65 µM
- GI50 [27]: 1.66 µM
- TGI [27]: 3.72 µM
- GI50 [28]: 2.01 µM
- TGI [28]: 4.05 µM
- GI50 [29]: 2.25 µM
- TGI [29]: 7.4 µM
